Source: patent publication US20260132165A1, “MODIFIED NUCLEOSIDE ANALOGUE AND USE THEREOF, AND NUCLEOSIDE ANALOGUE-CONTAINING DOUBLE-STRANDED OLIGONUCLEOTIDE AND USE THEREOF” (RIGERNA THERAPEUTICS (BEIJING) CO., LTD., priority 2023, published 2026)

Tests used:
target gene SOD1 [1] = test: Test Example 10: inhibitory activity on SOD1 in mouse adipose and heart tissues by different routes of administration; type: in vivo, C57BL/6j mice; conditions: D14; for inhibitory activity by different routes of administration: subcutaneous vs tail vein injection, same dose 5 mg/kg; for Subcutaneous % Mean value of inhibition rate: subcutaneous administration 5 mg/kg; for Intravenous % Mean value of inhibition rate: tail vein injection 5 mg/kg
Procedure: (§1) RNA extraction: the above tissue samples were taken out from the RNAlater, and smashed for 60 s in Tissuelyser type II full-automatic tissue homogenizer, and total RNAs of various tissue samples were extracted using the full-automatic nucleic acid extraction instrument and the nucleic acid extraction kit from Zhejiang Hanwei Science and Technology Co. Ltd. according to methods described in instructions.
(§2) Reverse transcription reaction: 1 μg of the extracted total RNAs of the tissue samples were taken, and configured into 20 μL of reverse transcription system according to a method described in kit instructions by using a reverse transcription kit (Reverse Transcription System, A3500) from Promega Corporation and selecting Oligo (dT)15 reverse transcription primers, and the reverse transcription reaction was completed. After the reaction was ended, 80 μL of RNase-Free water was added into the reverse transcription system to provide cDNA solution for Real-time PCR detection.
(§3) Real-time PCR detection: 20 μL of Real-time PCR reaction system per PCR detection well was configured according to a method described in kit instructions using SYBR™ Select Master Mix (Catalog number: 4472908) reagent from ABI company. Each detection system contained 5 μL of cDNA template obtained from the above reverse transcription reaction, 10 μL of SYBR™ Select Master Mix, 0.5 μL of 10 μM upstream primers, 0.5 μL of 10 μM downstream primers, and 4 μL of RNase-Free H2O. The configured reaction system was subjected to Real-time PCR amplification on ABI StepOnePlus PCR instrument by a three-step method, wherein an amplification procedure was pre-denaturation at 95° C. for 10 min, then denaturation at 95° C. for 30 s, annealing at 60° C. for 30 s, and extension at 72° C. for 30 s; and processes of denaturation, annealing, and extension were repeated for 40 cycles. Gene expression differences were calculated by the ΔΔCt method after completion of the procedure.
(§4) In the real-time fluorescence quantitative PCR method, relative quantitative calculation of remaining expression level and inhibition rate of gene mRNA of interest in various test groups was performed by the ΔΔCt method, and the calculation method is as follows:
(§5) The present test example evaluated, by an evaluation method for inhibitory activity on a target gene in mice, the inhibitory activity of siRNA sequence RZ899090 with the sense strand with the NM073 conjugation at Position 4 on the target gene SOD1 of interest in mice.
6-8 Week-old C57BL/6j mice were randomly grouped by body weight, 5 per group, 4 groups in total. Mice in one of the groups were dosed with the above siRNA conjugate by tail vein injection, with an administration dose of 5 mg/kg, and an administration volume of 150 μL. One group was dosed with the above siRNA conjugate by subcutaneous administration, with an administration dose of 5 mg/kg, and an administration volume of 5 ml/kg. The other two groups were PBS control groups, and were respectively administered with the same volume of siRNA conjugate-free PBS solution by tail vein injection and subcutaneous administration. The day of administration was recorded as D0, and the mice were sacrificed on D14 after administration. Paragonadal fat and heart tissues were respectively taken and stored in the RNAlater. RNA extraction, reverse transcription, and real-time fluorescence quantitative detection were performed on various tissues according to the above method, and gene expression differences were calculated by the above ΔΔCt method.

target gene SOD1 [2] = test: Test Example 11: inhibitory activity at different administration doses on SOD1 in mouse adipose and heart tissues; type: in vivo, C57BL/6j mice; conditions: D14; for 0.5 mg/kg % Mean value of inhibition rate: tail vein injection 0.5 mg/kg; for 2 mg/kg % Mean value of inhibition rate: tail vein injection 2 mg/kg; for 5 mg/kg % Mean value of inhibition rate: tail vein injection 5 mg/kg; for dose dependency of inhibitory activity: 0.5, 2, 5 mg/kg tail vein
Procedure: as §1, §2, §3, §4
as §5, with “4 at different administration doses” for “4”
6-8 Week-old C57BL/6j mice were randomly grouped by body weight, 5 per group, 4 groups in total. Mice were administered with the above siRNA conjugate by tail vein injection, wherein mice in one group were administered with the above siRNA conjugate at an administration dose of 5 mg/kg, mice in one group were administered with the above siRNA conjugate at an administration dose of 2 mg/kg, and one group was administered with the above siRNA conjugate at an administration dose of 0.5 mg/kg, all administration volumes being 150 μL. The remaining group acted as PBS control group and was administered with the same volume of siRNA conjugate-free PBS solution. The day of administration was recorded as D0, and the mice were sacrificed on D14 after administration. Paragonadal fat and heart tissues were respectively taken and stored in the RNAlater. RNA extraction, reverse transcription, and real-time fluorescence quantitative detection were performed on various tissues according to the above method, and gene expression differences were calculated by the above ΔΔCt method.

target gene SOD1 [3] = test: Test Example 12: inhibitory activity of lipid conjugated siRNA sequence on SOD1 in mouse eyes (intravitreal administration); type: in vivo, C57BL/6J mice; conditions: D14
Procedure: as §1, §2, §3, §4
as §5, with “RZ899091” for “RZ899090”, “NM074” for “NM073”, “4 and siRNA reference sequence RX899121 without vector conjugation” for “4”
6-8 Week-old C57BL/6J mice were randomly grouped by body weight, 5 in each group and 3 groups in total. Mice in each group were administered with the above siRNA conjugate by intravitreal administration to right eyes of the mice, with an administration dose of 7.5 μg per mouse, and an administration volume of 2 μL. PBS control group was administered with the same volume of siRNA conjugate-free PBS solution. The day of administration was recorded as D0, and the mice were sacrificed at D14 after administration. Administration-side ocular retina, choroid, cornea, sclera and other tissues were respectively taken and stored in the RNAlater. RNA extraction, reverse transcription, and real-time fluorescence quantitative detection were performed on various tissues according to the above method, and gene expression differences were calculated by the above ΔΔCt method.

[4] = mouse adipose tissues (paragonadal fat)

| Substance | inhibitory activity by different routes of administration (target gene SOD1 [1]; adipose tissues) | inhibitory activity by different routes of administration (target gene SOD1 [1]; heart) | Subcutaneous % Mean value of inhibition rate (target gene SOD1 [1]; [4]) [%] | Intravenous % Mean value of inhibition rate (target gene SOD1 [1]; [4]) [%] | Subcutaneous % Mean value of inhibition rate (target gene SOD1 [1]; mouse heart tissues) [%] | Intravenous % Mean value of inhibition rate (target gene SOD1 [1]; mouse heart tissues) [%] | 0.5 mg/kg % Mean value of inhibition rate (target gene SOD1 [2]; [4]) [%] | 2 mg/kg % Mean value of inhibition rate (target gene SOD1 [2]; [4]) [%] | 5 mg/kg % Mean value of inhibition rate (target gene SOD1 [2]; [4]) [%] | dose dependency of inhibitory activity (target gene SOD1 [2]; mouse adipose tissues) | dose dependency of inhibitory activity (target gene SOD1 [2]; mouse heart tissues) | 0.5 mg/kg % Mean value of inhibition rate (target gene SOD1 [2]; mouse heart tissues) [%] | 2 mg/kg % Mean value of inhibition rate (target gene SOD1 [2]; mouse heart tissues) [%] | 5 mg/kg % Mean value of inhibition rate (target gene SOD1 [2]; mouse heart tissues) [%] | Choroid % Mean value of inhibition rate (target gene SOD1 [3]; choroid, intravitreal, right eye, 7.5 μg per mouse) [%] | Cornea and sclera % Mean value of inhibition rate (target gene SOD1 [3]; cornea and sclera, intravitreal, right eye, 7.5 μg per mouse) [%] | Kidney % Mean value of inhibition rate (target gene SOD1 [3]; kidney, intravitreal, right eye, 7.5 μg per mouse) [%] | Liver % Mean value of inhibition rate (target gene SOD1 [3]; liver, intravitreal, right eye, 7.5 μg per mouse) [%] | inhibitory activity compared with the reference sequence RX899121 without vector (target gene SOD1 [3]; mouse retina and choroid, intravitreal 7.5 μg per mouse) | Retina % Mean value of inhibition rate (target gene SOD1 [3]; retina, intravitreal, right eye, 7.5 μg per mouse) [%] |
| --- | --- | --- | --- | --- | --- | --- | --- | --- | --- | --- | --- | --- | --- | --- | --- | --- | --- | --- | --- | --- |
| RZ899090: siRNA sequence with the sense strand with the NM073 (C18) conjugation at Position 4; SEQ ID NO: 15 / 23 (sense UUUNAAUCCUCACUCUAAA; antisense UUUAGAGUGAGGAUUAAAAUG; NM073 (C18) conjugate at sense position 4; modified_base 1..2 OTHER; 2'-methoxy and 5'-thiophosphate modified nucleotides; modified_base 3 OTHER; 2'-methoxy modified nucleotide; modified_base 4 OTHER; n is the nucleotide analog NM073 as described in the disclosure.; modified_base 5..6 OTHER; 2'-methoxy modified nucleotides; modified_base 7..10 OTHER; 2'-fluoro modified nucleotides; modified_base 11..19 OTHER; modified_base 1 OTHER; 2'-methoxy and 5'-thiovinylphosphonate modified nucleotide; modified_base 2 OTHER; 2'-fluoro and 5'-thiophosphate modified nucleotide; modified_base 3..5 OTHER; …) | comparable inhibitory activity in the fat | comparable inhibitory activity in heart | 77.05 | 80.33 | 73.71 | 76.57 | 45.65 | 70.90 | 83.09 | distinct dose dependency | distinct dose dependency | 30.45 | 62.38 | 79.04 | – | – | – | – | – | – |
| RZ899091: siRNA sequence with the sense strand with the NM074 (C20) conjugation at Position 4; SEQ ID NO: 16 / 23 (sense UUUNAAUCCUCACUCUAAA; antisense UUUAGAGUGAGGAUUAAAAUG; NM074 (C20) conjugate at sense position 4; modified_base 1..2 OTHER; 2'-methoxy and 5'-thiophosphate modified nucleotides; modified_base 3 OTHER; 2'-methoxy modified nucleotide; modified_base 4 OTHER; n is the synthetic nucleotide analog NM074 as described in the disclosure.; modified_base 5..6 OTHER; 2'-methoxy modified nucleotides; modified_base 7..10 OTHER; 2'-fluoro modified nucleotides; modified_base 11..19 OTHER; 2'-methoxy modified ; modified_base 1 OTHER; 2'-methoxy and 5'-thiovinylphosphonate modified nucleotide; modified_base 2 OTHER; 2'-fluoro and 5'-thiophosphate modified …) | – | – | – | – | – | – | – | – | – | – | – | – | – | – | 33.54 | −2.05 | 6.51 | −2.05 | superior inhibitory activity | 54.98 |
